From US11958861B2, “Spirocyclic lactams as JAK2 V617F inhibitors” (Incyte Corporation, priority 2021, dated 2024)
pIC50: −log10 of the molar value. Structures can show the parent of a compound that is named as a salt.

Legend:
[1] = target: T1, pseudo-kinase domain (JH2, amino-acids 536-812) of human V617F mutant JAK2 (Homo sapiens, UniProt O60674, F794H/V617F/W659A/W777A); assay: JAK2 LanthaScreen JH2-V617F Binding Assay; conditions: 1 hour at 25° C.
T1 construct: pseudo-kinase domain (JH2, amino-acids 536-812 with 3 surface mutations W659A, W777A, F794H); purchased BPS Bioscience 79498; host or cells: baculovirus expression system
T1 sequence (O60674 536-812 V617F/W659A/W777A/F794H): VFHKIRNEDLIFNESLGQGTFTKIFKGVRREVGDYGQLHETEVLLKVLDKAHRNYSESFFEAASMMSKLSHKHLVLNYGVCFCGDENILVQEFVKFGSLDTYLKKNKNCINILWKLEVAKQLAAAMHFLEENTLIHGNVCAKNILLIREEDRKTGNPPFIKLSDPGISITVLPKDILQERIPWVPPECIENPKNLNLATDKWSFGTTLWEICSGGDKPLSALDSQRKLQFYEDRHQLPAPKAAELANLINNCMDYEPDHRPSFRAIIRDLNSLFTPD
Outline: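 Binding was measured as TR-FRET displacement of 50 nM tracer from 0.26 nM biotinylated His-Avi protein, incubated one hour at 25° C; IC50 from a four-parameter fit.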

[2] = target: T2, pseudo-kinase domain (JH2, amino-acids 536-812) of human Wild Type JAK2 (Homo sapiens, UniProt O60674, F794H/W659A/W777A); assay: JAK2 LanthaScreen JH2-WT Binding Assay; conditions: 1 hour at 25° C.
T2 construct: pseudo-kinase domain (JH2, amino-acids 536-812 with 3 surface mutations W659A, W777A, F794H); purchased BPS Bioscience 79463; host or cells: baculovirus expression system
T2 sequence (O60674 536-812 W659A/W777A/F794H): as the sequence (O60674 536-812 V617F/W659A/W777A/F794H) above, with F82V counted along it
Outline: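 Biotinylated His-Avi-tagged JAK2 JH2 (0.145 nM), baculovirus-expressed, incubated with compounds, 50 nM fluorescent JH2 tracer and 0.25 nM streptavidin-Tb, 1 h at 25° C in pH 7.5 Tris buffer with MgCl2 and DTT. Non-specific binding defined with 2 mM ATP. TR-FRET read; IC50 from four-parameter fit.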

[3] = target: T3, catalytic domain (JH1, amino acids 826-1132) of human JAK2 (Homo sapiens, UniProt O60674); assay: JAK2 LanthaScreen JH1 Binding Assay; conditions: 2 hours at 25° C.
T3 construct: catalytic domain (JH1, amino acids 826-1132) of human JAK2; purchased Carna Biosciences 08-445-20N; host or cells: baculovirus expression system
T3 sequence (O60674 826-1132): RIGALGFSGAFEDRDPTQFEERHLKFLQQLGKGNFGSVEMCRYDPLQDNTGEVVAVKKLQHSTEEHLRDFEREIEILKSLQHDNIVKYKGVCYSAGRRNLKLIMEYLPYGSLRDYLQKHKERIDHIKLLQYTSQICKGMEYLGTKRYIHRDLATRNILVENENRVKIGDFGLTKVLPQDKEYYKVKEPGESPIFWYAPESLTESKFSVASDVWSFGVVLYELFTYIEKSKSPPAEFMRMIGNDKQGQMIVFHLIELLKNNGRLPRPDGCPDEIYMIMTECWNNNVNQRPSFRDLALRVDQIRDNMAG
Outline: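 Reaction held 1.5 nM biotinylated FLAG-JAK2 JH1, 50 nM tracer and 0.5 nM streptavidin-Tb in pH 7.5 Tris buffer; 2 mM ATP defined nonspecific binding.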

[4] = target: T4, catalytic domain (JH1, amino acids 808-1132) of human JAK2 (Homo sapiens, UniProt O60674); assay: JAK2 HTRF Enzyme Activity Assay; assay type: biochemical; conditions: ATP 30 μM, read-out: ENZ 30UMATP
T4 construct: catalytic domain (JH1, amino acids 808-1132) of human JAK2; His (N); purchased BPS Bioscience 40450; host or cells: baculovirus expression system
T4 sequence (O60674 808-1132): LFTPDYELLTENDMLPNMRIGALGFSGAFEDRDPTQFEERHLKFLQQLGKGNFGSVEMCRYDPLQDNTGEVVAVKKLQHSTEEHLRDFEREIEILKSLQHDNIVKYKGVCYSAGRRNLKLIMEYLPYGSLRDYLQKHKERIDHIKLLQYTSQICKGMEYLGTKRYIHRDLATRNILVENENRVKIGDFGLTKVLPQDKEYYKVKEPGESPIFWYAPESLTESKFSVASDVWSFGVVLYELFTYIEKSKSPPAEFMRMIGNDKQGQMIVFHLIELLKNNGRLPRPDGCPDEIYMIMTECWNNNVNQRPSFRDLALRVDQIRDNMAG
Outline: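 IC50 values come from a four-parameter fit of HTRF signal (Eu-PY20 antibody/streptavidin-APC, EDTA-quenched). Reaction: 0.015 nM N-His JAK2 catalytic domain (baculovirus), 500 nM biotin-peptide, 30 μM or 1 mM ATP, Tris pH 7.5 buffer, 60 min, 25° C.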

SMILES	pIC50 [1]	pIC50 [2]	pIC50 [3]	pIC50 [4]
CN1C(=O)C2(Cc3ccccc3C2)c2c1cnc1[nH]c(-c3ccc(CN4CCC(S(C)(=O)=O)CC4)cc3)cc21 [Example 57, 6-Methyl-2-(4-((4-(methylsulfonyl)piperidin-1-yl)methyl)phenyl)-1′,3,3′,6-tetrahydro-7H-spiro[dipyrrolo[2,3-b:3′,2′-d]pyridine-8,2′-inden]-7-one]	< 5.60	5.60 to 5.90	< 5.60	< 5.60
[2H]C([2H])([2H])n1ncc2cc(-c3c(-c4cnn(C)c4)[nH]c4ncc5c(c34)C3(CC4(CCN(C(=O)OC)CC4)C3)C(=O)N5C)ccc21 [Example 58, Methyl 6-methyl-2-(1-methyl-1H-pyrazol-4-yl)-1-(1-(methyl-d3)-1H-indazol-5-yl)-7-oxo-6,7-dihydro-3H-dispiro[dipyrrolo[2,3-b:3′,2′-d]pyridine-8,1′-cyclobutane-3′,4″-piperidine]-1″-carboxylate, trifluoroacetate salt]	≥ 7.00	≥ 7.00	5.60 to 5.90	5.60 to 5.90
CCCC(=O)N1CCC2(CC1)CC1(C2)C(=O)N(C)c2cnc3[nH]c(-c4cnn(C)c4)c(-c4ccc5c(cnn5C)c4)c3c21 [Example 59, 1″-Butyryl-6-methyl-1-(1-methyl-1H-indazol-5-yl)-2-(1-methyl-1H-pyrazol-4-yl)-3,6-dihydro-7H-dispiro[dipyrrolo[2,3-b:3′,2′-d]pyridine-8,1′-cyclobutane-3′,4″-piperidin]-7-one, trifluoroacetate salt]	≥ 7.00	≥ 7.00	5.60 to 5.90	5.60 to 5.90
CN(C)C(=O)N1CCC2(CC1)CC1(C2)C(=O)N(C)c2cnc3[nH]c(-c4cnn(C)c4)c(-c4ccc5c(cnn5C)c4)c3c21 [Example 60, N,N,6-Trimethyl-1-(1-methyl-1H-indazol-5-yl)-2-(1-methyl-1H-pyrazol-4-yl)-7-oxo-6,7-dihydro-3H-dispiro[dipyrrolo[2,3-b:3′,2′-d]pyridine-8,1′-cyclobutane-3′,4″-piperidine]-1″-carboxamide, trifluoroacetate salt]	≥ 7.00	≥ 7.00	5.60 to 5.90	5.60 to 5.90
COC(=O)N1CCC2(CC1)CC1(C2)C(=O)N(C)c2cnc3[nH]c(-c4cnn(C)c4)c(-c4ccc5c(cnn5C)c4)c3c21 [Example 61, Methyl 6-methyl-1-(1-methyl-1H-indazol-5-yl)-2-(1-methyl-1H-pyrazol-4-yl)-7-oxo-6,7-dihydro-3H-dispiro[dipyrrolo[2,3-b:3′,2′-d]pyridine-8,1′-cyclobutane-3′,4″-piperidine]-1″-carboxylate, trifluoroacetate salt]	≥ 7.00	≥ 7.00	5.90 to 6.30	5.90 to 6.30
COCCS(=O)(=O)N1CCC2(CC1)CC1(C2)C(=O)N(C)c2cnc3[nH]c(-c4cnn(C)c4)c(-c4ccccc4)c3c21 [Example 62, 1″-((2-Methoxyethyl)sulfonyl)-6-methyl-2-(1-methyl-1H-pyrazol-4-yl)-1-phenyl-3,6-dihydro-7H-dispiro[dipyrrolo[2,3-b:3′,2′-d]pyridine-8,1′-cyclobutane-3′,4″-piperidin]-7-one, trifluoroacetate salt]	≥ 7.00	≥ 7.00	< 5.60	< 5.60
CCCC(=O)N1CCC2(CC1)CC1(C2)C(=O)N(C)c2cnc3[nH]c(-c4ccn(C)c4)c(-c4ccc5c(cnn5C)c4)c3c21 [Example 64, 1″-Butyryl-6-methyl-1-(1-methyl-1H-indazol-5-yl)-2-(1-methyl-1H-pyrrol-3-yl)-3,6-dihydro-7H-dispiro[dipyrrolo[2,3-b:3′,2′-d]pyridine-8,1cyclobutane-3′,4″-piperidin]-7-one, trifluoroacetate salt]	≥ 7.00	≥ 7.00	5.60 to 5.90	5.60 to 5.90
CN1C(=O)C2(CCN(C3(CC#N)CCCC3)CC2)c2c1cnc1[nH]c(-c3cnn(C)c3)c(-c3ccc4c(cnn4C)c3)c21 [Example 73, 2-(1-(6-Methyl-1-(1-methyl-1H-indazol-5-yl)-2-(1-methyl-1H-pyrazol-4-yl)-7-oxo-6,7-dihydro-3H-spiro[dipyrrolo[2,3-b:3′,2′-d]pyridine-8,4′-piperidin]-1′-yl)cyclopentyl)acetonitrile, trifluoroacetate salt]	≥ 7.00	≥ 7.00	6.30 to 7.00	6.30 to 7.00
CN1C(=O)C2(C=CN(C3(CC#N)CC3)C=C2)c2c1cnc1[nH]c(-c3cnn(C)c3)c(-c3ccc4c(cnn4C)c3)c21 [Example 74, 2-(1-(6-Methyl-1-(1-methyl-1H-indazol-5-yl)-2-(1-methyl-1H-pyrazol-4-yl)-7-oxo-6,7-dihydro-1′H,3H-spiro[dipyrrolo[2,3-b:3′,2′-d]pyridine-8,4′-pyridin]-1′-yl)cyclopropyl)acetonitrile, trifluoroacetate salt]	≥ 7.00	≥ 7.00	5.90 to 6.30	5.90 to 6.30
CN1C(=O)C2(CCN(C(C)(C)c3c[nH]nn3)CC2)c2c1cnc1[nH]c(-c3cnn(C)c3)c(-c3ccc4c(cnn4C)c3)c21 [Example 76, 1′-(2-(1H-1,2,3-Triazol-4-yl)propan-2-yl)-6-methyl-1-(1-methyl-1H-indazol-5-yl)-2-(1-methyl-1H-pyrazol-4-yl)-3,6-dihydro-7H-spiro[dipyrrolo[2,3-b:3′,2′-d]pyridine-8,4′-piperidin]-7-one]	≥ 7.00	≥ 7.00	6.30 to 7.00	6.30 to 7.00
CN1C(=O)C2(CCN(C(C)(C)c3nnc[nH]3)CC2)c2c1cnc1[nH]c(-c3cnn(C)c3)c(-c3ccc4c(cnn4C)c3)c21 [Example 77, 1′-(2-(4H-1,2,4-Triazol-3-yl)propan-2-yl)-6-methyl-1-(1-methyl-1H-indazol-5-yl)-2-(1-methyl-1H-pyrazol-4-yl)-3,6-dihydro-7H-spiro[dipyrrolo[2,3-b:3′,2′-d]pyridine-8,4′-piperidin]-7-one]	≥ 7.00	≥ 7.00	5.90 to 6.30	5.90 to 6.30
[2H]C([2H])([2H])n1ncc2cc(-c3c(-c4cnn5c4CCC5)[nH]c4ncc5c(c34)C3(CCN(C4(CC#N)CCCC4)CC3)C(=O)N5C)ccc21 [Example 79, 2-(1-(2-(5,6-Dihydro-4H-pyrrolo[1,2-b]pyrazol-3-yl)-6-methyl-1-(1-(methyl-d3)-1H-indazol-5-yl)-7-oxo-6,7-dihydro-3H-spiro[dipyrrolo[2,3-b:3′,2′-d]pyridine-8,4′-piperidin]-1′-yl)cyclopentyl)acetonitrile]	≥ 7.00	≥ 7.00	< 5.60	5.60 to 5.90
COC(=O)N1CCC(CC#N)(N2CCC3(CC2)C(=O)N(C)c2cnc4[nH]c(-c5cnn(C)c5)c(-c5ccc6c(cnn6C)c5)c4c23)CC1 [Example 81, Methyl 4-(cyanomethyl)-4-(6-methyl-1-(1-methyl-1H-indazol-5-yl)-2-(1-methyl-1H-pyrazol-4-yl)-7-oxo-6,7-dihydro-3H-spiro[dipyrrolo[2,3-b:3′,2′-d]pyridine-8,4′-piperidin]-1′-yl)piperidine-1-carboxylate]	≥ 7.00	≥ 7.00	5.90 to 6.30	5.90 to 6.30
